Measured values from ChEMBL document CHEMBL1201862, “PubChem BioAssay data set” (2004).
The source made the active and inactive calls.

Tests used:
NADPH oxidase 1 = NADPH oxidase 1 (Homo sapiens, UniProt Q9Y5S8); format: functional, cell-based;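 note: Cell-based assay with luminescence read-out, IC50 derived from inhibitor dose-response curves; intracellular ROS from endogenous NOX1 in intact HT29 colon cancer cells; potency of inhibitors that lower the ROS luminescence signal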
[1] = M. tuberculosis growth inhibition, HTS (AID 449762); format: functional
[2] = microbe, parasite or virus in culture; format: functional; details: Mycobacterium tuberculosis
[3] = Dd2 parasite growth inhibition in erythrocytes – SYBR Green, dry powder samples, set 9, dose response (AID 1159568); format: functional, cell-based
[4] = Trypanosoma cruzi growth suppression in host cells – NIH3T3 host cells, beta-gal luminescence, confirmation (AID 2044); format: functional, cell-based;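 note: intracellular parasites grown in NIH/3T3 mouse fibroblasts as host cells; luminescent beta-galactosidase reporter signal from transgenic T. cruzi replicating inside host cells; inhibitors lower the luminescence signal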
[5] = NIH3T3 cell viability loss – ATP luminescence, mouse fibroblasts, counter-screen, dose response (AID 2010); format: functional, cell-based;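 note: cells exposed to compound for about 90 hours before reading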
Transthyretin = Transthyretin (Homo sapiens, UniProt P02766); test: Luminescence-based cell-based high throughput dose response assay to identify activators of Transthyretin (TTR) transcription.; format: functional
Estrogen receptor beta [6] = target: T1, Estrogen receptor beta (Homo sapiens, UniProt Q92731);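 note: recombinant ER-beta bound to coactivator SRC1 peptide in presence of estradiol agonist; inhibitors block coactivator peptide binding and lower the FRET signal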
Estrogen receptor beta [7] = target: T1, Estrogen receptor beta; test: blockers of SRC-3 recruitment to ERβ – biochemical, ELISA, streptavidin-HRP readout, orthogonal assay, confirmation (AID 1060)
[8] = target: Protein-tyrosine kinase 2-beta (Homo sapiens, UniProt Q14289);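 note: potency of inhibitors of PYK2 kinase phosphorylation of poly-GT substrate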
[9] = CCR5-tropic HIV-1 fusion blockers – cell-based, CCR5-tropic Env, dose response (AID 2279); format: functional
[10] = target: Induced myeloid leukemia cell differentiation protein Mcl-1 (Homo sapiens, UniProt Q07820); format: functional
[11] = viability loss in Vero cells – cytotoxicity control for Vif-APOBEC3G degradation inhibitor project, dose response (AID 1117358); format: functional; details: Vero
[12] = HIV-1 Vif–A3G interaction blockers – biochemical, TR-FRET, GST-Vif 1-94, biotin-A3G peptide, dose response retest, primary screen (AID 1117319); format: functional;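 note: TR-FRET signal of purified GST-Vif binding a biotinylated A3G peptide; inhibitors lower the FRET signal by blocking Vif and A3G binding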
cells [13] = format: functional, cell-based
Streptococcus = test: GAS UMAA2166 growth inhibition – luminescence, BacTiterGlo, counter-screen for streptokinase expression inhibitor project, dose response (AID 1915); format: functional, organism-based;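 note: potency for reduction of bacterial viability or growth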
[14] = system: Streptococcus sp. 'group A'; test: Streptococcus pyogenes SK(-)GAS viability under kanamycin – luminescence, BacTiterGlo, confirmation, counter-screen for streptokinase expression inhibitor project, dose response (AID 1900); format: functional, organism-based
[15] = Luminescence-based counterscreen assay for KLF5 inhibitors: dose response cell-based high throughput screening assay to identify cytotoxic compounds using the IEC-6 intestinal epithelial cell line. [Related pubchem assays: 1700 (Primary screen.), 1834 (Confirmation screen.), 1858 (Summary AID.), 1905 (Counterscreen.)]; format: functional
[16] = Vero E6 cell cytotoxicity, dose response, cytotoxicity control for non-replicating M. tuberculosis project, secondary assay (AID 492998); format: functional, VeroE6; details: Vero C1008
INS1 = test: INS-1E survival protection against cytokine death – cell-based, luminescence, retest, dose response (AID 449756); format: functional; details: Rattus norvegicus;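 note: cell death triggered by IL-1 beta plus TNF-alpha plus IFN-gamma mixture; protective hits raise ATP signal compared with cytokine alone wells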
cells [17] = format: functional
cells [18] = format: functional, cell-based; remark: listed apart in the source
Streptokinase A = target: T2, Streptokinase A (Streptococcus pyogenes serotype M1, UniProt P10520); test: viability-normalized secreted streptokinase activity reduction – plasminogen activation absorbance, OD405, dose response (AID 1914); format: functional, Streptococcus pyogenes M1 GAS;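 note: secreted streptokinase activity via plasminogen activation per viability signal from cell pellet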
T2 sequence (P10520 whole entry): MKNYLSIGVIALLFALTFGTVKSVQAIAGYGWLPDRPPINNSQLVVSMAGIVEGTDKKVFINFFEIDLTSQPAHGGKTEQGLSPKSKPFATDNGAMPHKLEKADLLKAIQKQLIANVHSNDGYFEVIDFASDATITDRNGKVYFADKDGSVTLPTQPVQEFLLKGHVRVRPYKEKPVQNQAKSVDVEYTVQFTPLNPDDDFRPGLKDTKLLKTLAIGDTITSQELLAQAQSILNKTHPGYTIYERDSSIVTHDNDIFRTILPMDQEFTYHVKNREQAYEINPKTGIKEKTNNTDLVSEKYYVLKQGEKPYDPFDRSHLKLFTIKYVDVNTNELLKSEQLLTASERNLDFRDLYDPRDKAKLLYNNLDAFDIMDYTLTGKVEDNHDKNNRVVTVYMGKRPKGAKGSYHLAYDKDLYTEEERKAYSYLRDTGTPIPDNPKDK

[19] = THP-1 cell cytotoxicity, dose response, cytotoxicity control for non-replicating M. tuberculosis project (AID 489025); format: functional
[20] = HepG2 cell cytotoxicity, dose response, cytotoxicity control for non-replicating M. tuberculosis project (AID 489018); format: functional; details: Mycobacterium tuberculosis
Estrogen receptor = Estrogen receptor (Homo sapiens, UniProt P03372);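 note: potency for inhibiting coactivator peptide recruitment to the receptor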
Sequence of Estrogen receptor (P03372 whole entry): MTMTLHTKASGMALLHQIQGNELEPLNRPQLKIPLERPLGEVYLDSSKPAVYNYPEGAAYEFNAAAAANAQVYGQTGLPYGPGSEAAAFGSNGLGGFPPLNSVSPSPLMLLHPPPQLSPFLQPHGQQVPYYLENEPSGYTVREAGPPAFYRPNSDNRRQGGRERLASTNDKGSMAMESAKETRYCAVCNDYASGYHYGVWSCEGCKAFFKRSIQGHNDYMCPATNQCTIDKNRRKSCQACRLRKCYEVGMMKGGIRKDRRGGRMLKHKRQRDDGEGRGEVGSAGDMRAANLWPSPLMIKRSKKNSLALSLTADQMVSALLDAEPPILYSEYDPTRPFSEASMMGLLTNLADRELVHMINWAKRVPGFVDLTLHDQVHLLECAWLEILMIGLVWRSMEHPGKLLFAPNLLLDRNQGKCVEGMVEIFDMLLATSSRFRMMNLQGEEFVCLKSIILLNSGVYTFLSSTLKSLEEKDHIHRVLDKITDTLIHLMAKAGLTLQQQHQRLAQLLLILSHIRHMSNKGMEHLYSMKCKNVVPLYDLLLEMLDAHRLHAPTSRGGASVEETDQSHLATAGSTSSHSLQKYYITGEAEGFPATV

T1 sequence (Q92731 whole entry): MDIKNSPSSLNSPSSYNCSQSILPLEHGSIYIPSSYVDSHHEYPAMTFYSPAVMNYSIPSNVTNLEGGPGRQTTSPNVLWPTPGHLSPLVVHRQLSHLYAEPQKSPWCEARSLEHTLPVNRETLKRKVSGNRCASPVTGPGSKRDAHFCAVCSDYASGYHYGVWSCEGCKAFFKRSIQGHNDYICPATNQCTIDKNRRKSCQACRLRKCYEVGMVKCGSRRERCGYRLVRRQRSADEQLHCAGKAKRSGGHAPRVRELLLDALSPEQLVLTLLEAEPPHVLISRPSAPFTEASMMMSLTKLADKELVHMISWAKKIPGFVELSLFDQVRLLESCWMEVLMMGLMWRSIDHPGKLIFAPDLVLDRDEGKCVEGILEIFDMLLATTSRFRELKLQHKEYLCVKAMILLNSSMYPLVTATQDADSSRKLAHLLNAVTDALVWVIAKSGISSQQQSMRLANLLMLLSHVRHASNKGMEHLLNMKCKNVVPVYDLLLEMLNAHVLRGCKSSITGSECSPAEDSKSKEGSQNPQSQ
Sequence of Protein-tyrosine kinase 2-beta (Q14289 whole entry, the tested form may be a part): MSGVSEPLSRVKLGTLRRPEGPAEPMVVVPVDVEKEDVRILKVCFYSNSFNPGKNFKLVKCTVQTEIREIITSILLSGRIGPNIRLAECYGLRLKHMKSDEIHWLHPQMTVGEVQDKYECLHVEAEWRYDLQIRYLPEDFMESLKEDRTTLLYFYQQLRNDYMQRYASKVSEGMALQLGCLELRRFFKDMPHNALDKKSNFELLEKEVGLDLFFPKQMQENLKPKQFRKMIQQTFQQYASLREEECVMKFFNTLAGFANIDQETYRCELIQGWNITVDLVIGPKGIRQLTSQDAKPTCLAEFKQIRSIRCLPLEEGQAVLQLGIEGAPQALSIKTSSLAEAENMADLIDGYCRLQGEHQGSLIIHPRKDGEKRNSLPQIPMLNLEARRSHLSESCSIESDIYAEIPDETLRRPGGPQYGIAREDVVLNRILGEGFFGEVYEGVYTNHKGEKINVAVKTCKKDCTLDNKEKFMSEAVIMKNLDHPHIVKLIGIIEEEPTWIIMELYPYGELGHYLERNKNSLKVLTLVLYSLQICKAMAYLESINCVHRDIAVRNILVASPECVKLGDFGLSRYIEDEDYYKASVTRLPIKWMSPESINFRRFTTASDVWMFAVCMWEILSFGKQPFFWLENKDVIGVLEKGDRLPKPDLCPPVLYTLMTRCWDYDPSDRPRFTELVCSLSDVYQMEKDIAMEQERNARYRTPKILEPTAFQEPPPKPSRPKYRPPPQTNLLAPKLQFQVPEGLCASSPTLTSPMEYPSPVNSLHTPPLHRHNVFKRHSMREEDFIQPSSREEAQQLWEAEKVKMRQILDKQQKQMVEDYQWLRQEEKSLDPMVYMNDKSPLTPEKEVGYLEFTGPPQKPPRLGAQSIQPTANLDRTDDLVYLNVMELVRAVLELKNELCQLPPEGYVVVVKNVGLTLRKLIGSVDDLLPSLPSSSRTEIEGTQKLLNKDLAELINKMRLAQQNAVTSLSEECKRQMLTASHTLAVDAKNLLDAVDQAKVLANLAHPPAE
Sequence of NADPH oxidase 1 (Q9Y5S8 whole entry): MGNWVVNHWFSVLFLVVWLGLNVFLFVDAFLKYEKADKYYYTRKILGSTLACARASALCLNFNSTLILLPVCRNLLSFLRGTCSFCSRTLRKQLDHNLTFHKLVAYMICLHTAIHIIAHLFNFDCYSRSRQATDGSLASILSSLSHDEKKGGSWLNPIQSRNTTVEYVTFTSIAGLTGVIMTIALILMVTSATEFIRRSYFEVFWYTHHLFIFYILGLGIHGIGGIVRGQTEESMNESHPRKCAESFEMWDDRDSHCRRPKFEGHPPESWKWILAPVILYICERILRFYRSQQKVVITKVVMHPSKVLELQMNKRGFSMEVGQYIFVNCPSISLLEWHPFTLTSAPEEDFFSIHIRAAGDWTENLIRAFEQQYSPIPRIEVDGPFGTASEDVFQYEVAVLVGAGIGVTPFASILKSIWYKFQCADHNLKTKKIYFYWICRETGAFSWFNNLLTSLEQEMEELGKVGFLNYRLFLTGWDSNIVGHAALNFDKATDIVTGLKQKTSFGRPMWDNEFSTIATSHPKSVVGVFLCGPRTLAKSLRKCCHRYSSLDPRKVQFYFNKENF
Sequence of Induced myeloid leukemia cell differentiation protein Mcl-1 (Q07820 whole entry): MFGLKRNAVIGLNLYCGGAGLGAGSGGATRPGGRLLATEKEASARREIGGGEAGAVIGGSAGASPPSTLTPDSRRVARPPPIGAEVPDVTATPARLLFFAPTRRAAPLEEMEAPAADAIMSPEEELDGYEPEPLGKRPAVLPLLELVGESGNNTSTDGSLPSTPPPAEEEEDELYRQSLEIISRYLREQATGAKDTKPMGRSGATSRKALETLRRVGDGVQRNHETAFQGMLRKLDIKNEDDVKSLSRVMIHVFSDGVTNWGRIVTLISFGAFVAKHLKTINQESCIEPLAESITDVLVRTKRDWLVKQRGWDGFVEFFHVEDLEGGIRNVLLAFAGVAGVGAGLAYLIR

Compound: O=C(Nc1ccccc1)Nc1nc(-c2ccccc2)cs1
- IC50 (NADPH oxidase 1): > 17 µM (not active)

Compound: COc1ccccc1/C=N/NC(=O)NC12CC3CC(CC(C3)C1)C2
- IC50 [1]: > 100 µM (active)
- CC50 [2]: > 40 µM (active)

Compound: COc1ccc(NC(=O)N2CCCCN3[C@H](CO)[C@@H](c4ccc(-c5ccccc5F)cc4)[C@H]3C2)cc1
- AC50 [3]: 1.81 µM (active)

Compound: Cc1nnc(SCc2ccc(Cl)cc2)nc1/C=C/N(C)C
- EC50 [4]: 0.66 µM (active)
- EC50 [5]: > 60 µM (not active)
- EC50 (Transthyretin): > 167 µM (inactive)

Compound: Cc1ccccc1-n1c(SC/C(O)=C(\C#N)c2nc3ccccc3[nH]2)nnc1-c1ccncc1
- IC50 (Estrogen receptor beta [6]): > 50 µM (not active)
- IC50 (Estrogen receptor beta [7]): 0.371 µM (not active)

Compound: COc1ccc([N+](=O)[O-])cc1COc1cc(C)cc2oc(=O)cc(-c3ccccc3)c12
- IC50 [8]: > 69.5 µM (not active)

Compound: COc1cc(/C=C2\SC(=O)N(Cc3ccc(F)cc3)C2=O)cc([N+](=O)[O-])c1O
- IC50 [9]: 45.6 µM (active)
- IC50 [10]: 7.65 µM (active)

Compound: O=C(c1ccco1)N(CCC(c1ccccc1)c1ccco1)Cc1ccc(F)cc1 (stereo unspecified)
- CC50 [11]: > 40 µM (active)

Compound: COc1ccc(Nc2nc(N)nc(CSC(=S)N3CCN(c4ccccc4)CC3)n2)cc1
- IC50 [12]: > 100 µM (active)

Compound: CCOc1cccc(/C=N/NC(=O)c2ccc3c(c2)OCCO3)c1O
- EC50 (cells [13]): > 350 µM (not active)
- EC50 (Streptococcus): 2.77 µM (active)
- EC50 [14]: 1.49 µM (active)
- IC50 [15]: 12.5 µM (not active)
- CC50 [16]: 6.58 µM (active)
- AC50 (INS1): 3.01 µM (active)
- IC50 (cells [17]): > 50 µM (active)
- EC50 (cells [18]): 50.3 µM (active)
- EC50 (Streptokinase A): 1.11 µM (active)
- CC50 [19]: 3.18 µM (active)
- CC50 [20]: 4.3 µM (active)

Compound: CCCCOC(=O)c1cc(-c2ccc(/C=N/n3cnnc3)o2)ccc1Cl
- IC50 (Estrogen receptor): > 50 µM (not active)
